Measured values published in US20110027354A1, “ANTI-PA[…]” (priority 2008, published 2011).
Entries after “also recorded” stand apart in the source; their conditions may differ.

Legend:
phospho-Akt = experiment: Phosphorylation of Akt at Ser473 (western blot); format: in vivo, mice; conditions: striatum; for effect on MPTP-induced decrease in phospho-Akt: vs. MPTP alone
Method: (§1) The western blot assays were performed as described previously (thong et al., 1997). Tissues were homogenized in lysis buffer, containing 200 mM Tris HCl (pH 6.8), 1% SDS, 5 mM ethylene glycol tetraacetic acid, 5 mM ethylenediaminetetraacetic acid, 10% glycerol, 1× phosphatase inhibitor cocktail I, 1× protease inhibitor cocktail. The supernatant fraction was subsequently centrifuged at 30,000×g for 30 min. The resulting pellet was resuspended in the sample buffer. Proteins (20-50 ug/lane) were separated by 6%, 8%, 10% or 15% sodium dodecyl sulfate-polyacrylamide gel electrophoresis and transferred onto the nitrocellulose membranes. Following transfer, the nitrocellulose membranes were preincubated with 5% non-fat milk and incubated overnight at 4° C. with anti-β-actin (Sigma, 1:50000), anti-TH (Chemicon, 1:5000), anti-TH phosphoser19 (Chemicon, 1:5000), anti-TH phosphoser31 (Chemicon, 1:500), anti-TH phosphoser40 (Chemicon, 1:500), anti-F 4/80 (Serotec, 1:500), anti-BDNF (Chemicon, 1:500), anti-GDNF (Santa-Cruz, 1:250), anti-Akt (Cell signaling, 1:1000), anti-phospho Akt ser 473 (Cell signaling, 1:1000), anti-PI3K (Cell signaling, 1:1000), anti-phospho PI3K (Cell signaling, 1:500) and anti-α-synuclein (BD Transduction, 1:500) antibody. After incubation with primary antibody, membranes were incubated with the secondary anti-rabbit IgG, Horseradish Peroxidase (1:1000 dilution, Amersham) or anti-mouse IgG, Horseradish Peroxidase (1:1000, Sigma), or anti-goat IgG, Horseradish Peroxidase (1:1000, Sigma) for 2 h, washed. Subsequently visualized with the Amersham ECL system (Amersham, Arlington Heights, Ill., USA).

[1] = tested on: reactive oxygen species (ROS); experiment: Determination of ROS formation; format: in vivo, mice; conditions: striatum; for ROS level: drug alone (no MPTP); for effect on MPTP-induced increase in ROS level: one day after final MPTP, vs. MPTP alone
Method: The extent of reactive oxygen species (ROS) formation in the prefrontal cortex was assessed by measuring the conversion from 2′,7′-dichlorofluorescin diacetate (DCFH-DA) to dichlorofluoresin. (DCF) as describe by Bourre et al. with slight modification (Sutsumi, S et al., 2002). Brain homogenates were added to a tube containing 2 ml of PBS with 10 nmole of DCFH-DA, dissolved in methanol. Mixtures were incubated at 37° C. for 3 h and then measured the […] at 480 nm excitation and 525 nm emission. DCF is used as a standard.

mice = experiment: Conditioned place preference (CPP); format: in vivo; conditions: selegiline or MPPE 2.5 or 5.0 mg/kg i.p., MA 0.5 or 1.0 mg/kg i.p.; vs. saline
Method: For conditioned place preference (CPP) test, mice received an i.p. injection of saline just before entering the […] compartment. MA (0.5 or 1.0 mg/kg, i.p.), selegiline (2.5 or 5.0 mg/kg, i.p.), and MPPE (2.5 or 5.0 mg/kg, i.p.) dissolved in saline was administered immediately before the mice were placed in the white compartment. On day 1, the mice were pre-exposed to the test apparatus for 15 minutes. The guillotine style doors were raised and mice were allowed to move freely between the two compartments. On day 2, the time each mouse spent in each compartment was recorded for 15 minutes. On days 3, 5, 7, 9, 11, and 13, the mice were injected with each drug before being confined to the white compartment, the non-preferred side, for 40 minutes. On day 14, the guillotine doors were raised. The mice were initially placed in the tunnel and the time spent by the mice in the two compartments was recorded for 15 minutes. The scores were calculated from the differences in the time spent in the white compartment in the testing and pre-testing phases. Data were analyzed between 09:00 and 17:00 hours.

protein carbonyl = experiment: Determination of protein carbonyl (Oxyblot assay); format: in vivo, mice; conditions: striatum; for protein carbonyl expression: drug alone (no MPTP); for effect on MPTP-induced increase in protein carbonyl expression: one day after final MPTP, vs. MPTP alone
Method: Total protein ([…]) was used to perform the Oxyblot assay. The amount of oxidized proteins was measured using the Oxyblot kit (Chemicon International, CA), following the manufacturer's instructions. Briefly, the protein carbonyl content was measured by first forming labeled protein hydrazone derivatives using 2,4-dinitrophenylhydrazide (DNP). The INP-derivatized protein samples were separated by polyacrylamide gel electrophoresis followed by Western blotting. Blots were then incubated with primary antibody specific to the DNP moiety, followed by incubation with a horseradish peroxidase-antibody conjugate directed against the primary antibody. The blots were then treated with chemiluminescent reagents (Amersham) (Gemma et al., 2004).

[2] = tested on: F4/80, a marker of reactive microglia; experiment: F4/80 expression (western blot); format: in vivo, mice; conditions: striatum; pre-treatment; vs. MPTP alone
Method: as §1, with “After incubation with primary antibody, membranes were incubated with the secondary anti-rabbit IgG, Horseradish Peroxidase (1:1000 dilution, Amersham) or anti-mouse IgG, Horseradish Peroxidase (1:1000, Sigma), or anti-goat IgG, Horseradish Peroxidase (1:1000, Sigma) for 2 h, washed. Subsequently visualized with the Amersham ECL system (Amersham, Arlington Heights, Ill., USA).” left out

MPTP-treated mice = experiment: Rota-rod test in MPTP-treated mice; conditions: 2.5 mg/kg i.p.; for effect on MPTP-impaired Rota-rod performance: vs. MPTP alone
Method: The apparatus (Ugo Basile model 7650) consisted of a base platform and a rotating rod with a nonslippery surface. The rod was placed at a height of 15 cm from the base. The rod, 30 cm in length, was divided into 5 equal sections by 6 opaque disks (so that the subjects cannot be distracted by one another). To assess motor performance, the mice were first trained on the apparatus 2 minutes at a rate 4 r.p.m. per 30 s prior to the test. The test was performed 30 minutes after training and an accelerating paradigm was applied at a rate 4 r.p.m. per 30 s, starting from 4 r.p.m. to a maximum speed of 40 r.p.m., then the rotation speed was kept constant at 40 r.p.m. for a maximum of 300 s. The duration for which the animal could maintain balance on the rotating drum was measured as the rotarod latency, with a maximal cut-off time of 300 s.

phospho-PI3K = experiment: Phosphorylation of PI3K (western blot); format: in vivo, mice; conditions: striatum; for effect on MPTP-induced decrease in phospho-PI3K: vs. MPTP alone
Method: as §1

[3] = tested on: brain derived neurotrophic factor (BDNF); experiment: BDNF expression (western blot); format: in vivo, mice; conditions: striatum; for effect on MPTP-induced reduction of BDNF expression: pre-treatment, vs. MPTP alone
Method: as §1

Compound | effect on MPTP-induced decrease in phospho-Akt (phospho-Akt) | attenuation of phospho-Akt decrease compared with selegiline (phospho-Akt; vs. selegiline+MPTP) | ROS level [1] | effect on MPTP-induced increase in ROS level [1] | attenuation of ROS increase compared with selegiline ([1]; vs. selegiline+MPTP) | conditioned place preference (CPP) (mice) | protein carbonyl expression (protein carbonyl) | effect on MPTP-induced increase in protein carbonyl expression (protein carbonyl) | attenuation of protein carbonyl increase compared with selegiline (protein carbonyl; vs. selegiline+MPTP) | effect on MPTP-induced increase in F4/80-immunoreactivity [2] | effect on MPTP-impaired Rota-rod performance (MPTP-treated mice) | attenuation of MPTP-reduced rota-rod performance compared with selegiline (MPTP-treated mice; vs. selegiline-pretreated) | effect on MPTP-induced decrease in phospho-PI3K (phospho-PI3K) | attenuation of phospho-PI3K decrease compared with selegiline (phospho-PI3K; vs. selegiline+MPTP) | effect on MPTP-induced reduction of BDNF expression [3] | enhancement of BDNF expression compared with selegiline ([3]; vs. selegiline+MPTP)
C#CCN(C)CCc1ccccc1 [MPPE, N-methyl-N-propynyl-2-phenylethylamine] | significantly attenuated | more pronounced in MPPE-treated mice | a little induction | attenuated | appeared to be more underlined in the MPPE-pretreated mice | did not significantly change | a little induction | attenuated | appeared to be more underlined in the MPPE-pretreated mice | significantly blocked increase in F4/80-immunoreactivity induced by MPTP; also recorded: attenuated | significantly attenuated | more pronounced in the MPPE-pretreated mice than selegiline-pretreated case | significantly attenuated | more pronounced in MPPE-treated mice | significantly attenuated | more effective
C#CCN(C)[C@H](C)Cc1ccccc1 [selegiline, reference compound] | significantly attenuated | – | a little induction | attenuated | – | significantly increased compared with saline | a little induction | attenuated | – | significantly blocked increase in F4/80-immunoreactivity induced by MPTP; also recorded: attenuated | significantly attenuated | – | significantly attenuated | – | significantly attenuated | –
